Measurements reported in patent US20090099029A1, “Methods and substrates for conducting assays” (Invitrogen Corporation, priority 2005, published 2009).
Read-outs that look alike come from different tables or passages of the source.

Columns and labels:
39 kinases (Table 4) = details: known general specificities of the inhibitors; cited from earlier work
kinases of Table 5 [1] = target: kinases of Table 5 (Homo sapiens, UniProt Q00536); assay: Further analysis of a plurality of inhibitors and a plurality of kinases (Table 5 inhibition results); type: biochemical; parameters: scale not given here; details: kinase PCTK1 (Part I, plate A3, Domain 0); inhibitor 100 uM
Sequence of kinases of Table 5 (Homo sapiens, UniProt Q00536) (Q00536 whole entry): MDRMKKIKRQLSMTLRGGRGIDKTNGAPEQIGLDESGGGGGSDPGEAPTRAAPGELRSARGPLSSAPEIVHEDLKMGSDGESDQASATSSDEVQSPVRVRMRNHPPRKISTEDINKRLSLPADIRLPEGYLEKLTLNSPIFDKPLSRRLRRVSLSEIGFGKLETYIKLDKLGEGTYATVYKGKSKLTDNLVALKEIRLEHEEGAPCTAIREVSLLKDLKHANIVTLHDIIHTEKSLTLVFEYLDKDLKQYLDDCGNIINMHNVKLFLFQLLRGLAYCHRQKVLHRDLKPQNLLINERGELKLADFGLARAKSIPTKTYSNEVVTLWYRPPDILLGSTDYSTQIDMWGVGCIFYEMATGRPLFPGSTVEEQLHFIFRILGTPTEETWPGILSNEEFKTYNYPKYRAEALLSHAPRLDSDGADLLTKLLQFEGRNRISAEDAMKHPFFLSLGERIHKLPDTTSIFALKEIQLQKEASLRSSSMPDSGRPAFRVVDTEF
Description: (§1) The wash solution is then discarded.

kinases of Table 5 [2] = target: T1, kinases of Table 5 (Homo sapiens, UniProt P45985); assay: as above; type: biochemical; parameters: scale not given here
T1 sequence (P45985 1-399): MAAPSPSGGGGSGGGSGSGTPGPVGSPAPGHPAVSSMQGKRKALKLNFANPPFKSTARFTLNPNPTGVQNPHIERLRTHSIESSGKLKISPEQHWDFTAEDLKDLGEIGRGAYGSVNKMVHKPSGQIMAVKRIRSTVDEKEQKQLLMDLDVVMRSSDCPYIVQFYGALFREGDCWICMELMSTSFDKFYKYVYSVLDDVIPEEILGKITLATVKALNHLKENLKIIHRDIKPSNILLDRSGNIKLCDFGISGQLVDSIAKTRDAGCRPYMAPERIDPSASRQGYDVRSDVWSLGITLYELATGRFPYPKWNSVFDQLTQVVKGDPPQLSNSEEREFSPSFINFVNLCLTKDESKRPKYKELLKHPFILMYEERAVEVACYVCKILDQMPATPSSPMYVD
Description: as §1

kinases of Table 5 [3] = target: kinases of Table 5 (Homo sapiens, UniProt P06241); assay: as above; type: biochemical; parameters: scale not given here
Sequence of kinases of Table 5 (Homo sapiens, UniProt P06241) (P06241 whole entry): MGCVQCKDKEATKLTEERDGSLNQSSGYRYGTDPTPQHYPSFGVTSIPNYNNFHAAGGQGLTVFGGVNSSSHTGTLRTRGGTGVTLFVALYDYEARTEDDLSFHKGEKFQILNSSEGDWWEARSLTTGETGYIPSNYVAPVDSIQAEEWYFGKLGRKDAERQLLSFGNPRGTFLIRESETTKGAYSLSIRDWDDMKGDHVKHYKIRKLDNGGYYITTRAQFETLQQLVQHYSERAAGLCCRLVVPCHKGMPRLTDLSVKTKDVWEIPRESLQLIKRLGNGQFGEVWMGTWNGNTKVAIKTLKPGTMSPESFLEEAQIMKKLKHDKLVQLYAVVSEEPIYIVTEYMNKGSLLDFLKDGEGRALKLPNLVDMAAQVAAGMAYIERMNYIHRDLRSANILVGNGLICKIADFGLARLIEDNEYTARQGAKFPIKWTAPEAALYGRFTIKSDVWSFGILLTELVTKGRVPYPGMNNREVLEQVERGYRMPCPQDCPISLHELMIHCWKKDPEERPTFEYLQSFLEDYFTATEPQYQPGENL
Description: as §1

kinases of Table 5 [4] = target: kinases of Table 5 (Homo sapiens, UniProt P09769); assay: as above; type: biochemical; parameters: scale not given here; details: for Inhibition level: kinase FGR; for Inhibition Results (Level): kinase FGR (Part II, plate B10, Domain 0)
Sequence of kinases of Table 5 (Homo sapiens, UniProt P09769) (P09769 whole entry): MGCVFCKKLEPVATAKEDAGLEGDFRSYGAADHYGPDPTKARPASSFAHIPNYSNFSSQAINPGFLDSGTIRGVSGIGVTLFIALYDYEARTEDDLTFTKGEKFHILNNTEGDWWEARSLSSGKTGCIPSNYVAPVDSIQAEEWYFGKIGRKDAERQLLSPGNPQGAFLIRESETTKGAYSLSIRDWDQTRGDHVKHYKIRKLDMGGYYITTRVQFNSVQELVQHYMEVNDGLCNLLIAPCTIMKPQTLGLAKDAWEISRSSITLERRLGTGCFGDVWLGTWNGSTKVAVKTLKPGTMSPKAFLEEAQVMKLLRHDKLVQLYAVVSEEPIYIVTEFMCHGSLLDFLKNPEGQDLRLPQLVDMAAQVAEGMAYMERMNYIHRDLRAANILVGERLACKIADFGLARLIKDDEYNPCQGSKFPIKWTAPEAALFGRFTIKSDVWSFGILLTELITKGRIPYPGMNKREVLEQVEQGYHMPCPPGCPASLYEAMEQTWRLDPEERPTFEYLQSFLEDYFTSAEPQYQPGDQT
Description: as §1

kinases of Table 5 [5] = target: kinases of Table 5 (Homo sapiens, UniProt O75914); assay: as above; type: biochemical; parameters: scale not given here; details: for Inhibition level: kinase PAK3; for Inhibition Results (Level): kinase PAK3 (Part II, plate D4, Domain 1)
Sequence of kinases of Table 5 (Homo sapiens, UniProt O75914) (O75914 whole entry): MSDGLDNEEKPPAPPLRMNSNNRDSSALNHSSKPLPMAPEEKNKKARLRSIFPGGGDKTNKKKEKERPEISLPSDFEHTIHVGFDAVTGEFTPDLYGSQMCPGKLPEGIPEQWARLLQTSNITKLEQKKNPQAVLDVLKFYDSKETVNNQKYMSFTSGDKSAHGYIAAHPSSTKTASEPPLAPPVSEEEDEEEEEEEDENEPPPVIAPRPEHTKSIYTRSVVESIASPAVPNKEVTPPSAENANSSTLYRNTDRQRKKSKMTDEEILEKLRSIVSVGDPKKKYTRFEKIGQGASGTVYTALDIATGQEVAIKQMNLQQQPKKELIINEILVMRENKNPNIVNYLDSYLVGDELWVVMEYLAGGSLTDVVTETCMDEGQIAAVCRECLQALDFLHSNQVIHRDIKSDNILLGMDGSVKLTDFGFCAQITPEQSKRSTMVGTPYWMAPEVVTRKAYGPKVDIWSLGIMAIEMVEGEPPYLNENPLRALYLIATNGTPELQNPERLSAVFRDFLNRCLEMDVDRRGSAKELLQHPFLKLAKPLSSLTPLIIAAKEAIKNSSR
Description: as §1

kinases of Table 5 [6] = target: T2, kinases of Table 5 (Homo sapiens, UniProt Q08881); assay: as above; type: biochemical; parameters: scale not given here; details: kinase ITK (Part I, plate E4, Domain 0); inhibitor 100 uM
T2 sequence (Q08881 1-620): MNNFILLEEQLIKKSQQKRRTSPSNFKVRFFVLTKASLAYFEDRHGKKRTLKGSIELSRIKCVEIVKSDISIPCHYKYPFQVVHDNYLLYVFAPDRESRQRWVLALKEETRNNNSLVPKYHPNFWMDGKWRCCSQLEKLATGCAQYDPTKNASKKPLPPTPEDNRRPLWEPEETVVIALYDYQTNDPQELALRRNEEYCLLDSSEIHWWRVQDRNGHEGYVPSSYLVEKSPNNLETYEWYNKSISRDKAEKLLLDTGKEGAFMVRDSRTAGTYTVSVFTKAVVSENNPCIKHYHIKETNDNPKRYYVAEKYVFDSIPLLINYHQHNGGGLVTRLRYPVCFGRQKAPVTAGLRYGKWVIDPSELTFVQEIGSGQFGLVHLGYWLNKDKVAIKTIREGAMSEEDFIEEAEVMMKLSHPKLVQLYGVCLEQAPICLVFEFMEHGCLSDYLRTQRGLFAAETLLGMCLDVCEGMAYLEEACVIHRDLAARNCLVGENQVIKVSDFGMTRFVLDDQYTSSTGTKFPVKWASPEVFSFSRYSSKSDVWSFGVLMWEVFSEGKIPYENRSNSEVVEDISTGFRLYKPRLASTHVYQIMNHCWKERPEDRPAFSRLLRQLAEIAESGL
Description: as §1

kinases of Table 5 [7] = target: T3, kinases of Table 5 (Homo sapiens, UniProt O14965); assay: as above; type: biochemical; parameters: scale not given here; details: kinase STK6 (Part I, plate C6, Domain 1)
T3 sequence (O14965 1-403): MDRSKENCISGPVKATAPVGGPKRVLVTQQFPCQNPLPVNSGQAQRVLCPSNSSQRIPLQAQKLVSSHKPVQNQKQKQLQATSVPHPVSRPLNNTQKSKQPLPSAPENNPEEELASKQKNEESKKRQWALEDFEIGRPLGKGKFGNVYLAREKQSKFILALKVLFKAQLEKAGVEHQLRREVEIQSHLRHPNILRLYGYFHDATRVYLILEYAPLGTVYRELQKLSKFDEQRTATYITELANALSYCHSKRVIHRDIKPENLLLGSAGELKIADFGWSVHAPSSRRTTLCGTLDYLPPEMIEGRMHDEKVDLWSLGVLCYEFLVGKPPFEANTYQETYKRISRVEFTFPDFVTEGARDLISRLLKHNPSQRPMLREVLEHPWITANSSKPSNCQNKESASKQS
Description: as §1

kinases of Table 5 [8] = target: T4, kinases of Table 5 (Homo sapiens, UniProt Q8IV63); assay: as above; type: biochemical; parameters: scale not given here; details: kinase LOC51231 (Part I, plate C12, Domain 1)
T4 sequence (Q8IV63 1-474): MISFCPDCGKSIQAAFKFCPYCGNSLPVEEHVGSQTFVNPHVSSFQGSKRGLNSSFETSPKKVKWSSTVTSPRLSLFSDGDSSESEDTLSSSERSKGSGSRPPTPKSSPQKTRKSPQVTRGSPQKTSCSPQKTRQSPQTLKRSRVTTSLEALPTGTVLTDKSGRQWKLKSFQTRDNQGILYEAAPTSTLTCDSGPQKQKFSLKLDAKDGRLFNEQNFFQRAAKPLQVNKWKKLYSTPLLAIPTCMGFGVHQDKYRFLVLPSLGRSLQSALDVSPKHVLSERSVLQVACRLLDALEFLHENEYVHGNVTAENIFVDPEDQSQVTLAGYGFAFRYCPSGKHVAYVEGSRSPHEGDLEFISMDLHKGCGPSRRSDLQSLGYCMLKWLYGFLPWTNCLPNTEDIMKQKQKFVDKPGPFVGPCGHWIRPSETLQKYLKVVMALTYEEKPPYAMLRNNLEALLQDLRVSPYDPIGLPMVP
Description: as §1

kinases of Table 5 [9] = target: kinases of Table 5 (Homo sapiens, UniProt P07948); assay: as above; type: biochemical; parameters: scale not given here
Sequence of kinases of Table 5 (Homo sapiens, UniProt P07948) (P07948 whole entry): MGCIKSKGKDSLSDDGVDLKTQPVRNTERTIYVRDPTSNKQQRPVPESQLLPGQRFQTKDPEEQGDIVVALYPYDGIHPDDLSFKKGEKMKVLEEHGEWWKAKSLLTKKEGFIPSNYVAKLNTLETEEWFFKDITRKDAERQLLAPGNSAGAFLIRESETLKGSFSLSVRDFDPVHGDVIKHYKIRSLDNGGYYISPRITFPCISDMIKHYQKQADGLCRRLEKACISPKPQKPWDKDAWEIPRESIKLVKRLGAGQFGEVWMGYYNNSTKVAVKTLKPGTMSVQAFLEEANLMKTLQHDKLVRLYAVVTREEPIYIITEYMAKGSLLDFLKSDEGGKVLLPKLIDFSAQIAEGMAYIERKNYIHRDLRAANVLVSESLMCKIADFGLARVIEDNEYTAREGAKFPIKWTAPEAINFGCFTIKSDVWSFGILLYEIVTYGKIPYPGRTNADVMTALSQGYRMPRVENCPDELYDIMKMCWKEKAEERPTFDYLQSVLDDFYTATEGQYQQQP
Description: as §1

kinases of Table 5 [10] = target: kinases of Table 5 (Homo sapiens, UniProt P21802); assay: as above; type: biochemical; parameters: scale not given here; details: for Inhibition level: kinase FGFR2
Sequence of kinases of Table 5 (Homo sapiens, UniProt P21802) (P21802 22-821): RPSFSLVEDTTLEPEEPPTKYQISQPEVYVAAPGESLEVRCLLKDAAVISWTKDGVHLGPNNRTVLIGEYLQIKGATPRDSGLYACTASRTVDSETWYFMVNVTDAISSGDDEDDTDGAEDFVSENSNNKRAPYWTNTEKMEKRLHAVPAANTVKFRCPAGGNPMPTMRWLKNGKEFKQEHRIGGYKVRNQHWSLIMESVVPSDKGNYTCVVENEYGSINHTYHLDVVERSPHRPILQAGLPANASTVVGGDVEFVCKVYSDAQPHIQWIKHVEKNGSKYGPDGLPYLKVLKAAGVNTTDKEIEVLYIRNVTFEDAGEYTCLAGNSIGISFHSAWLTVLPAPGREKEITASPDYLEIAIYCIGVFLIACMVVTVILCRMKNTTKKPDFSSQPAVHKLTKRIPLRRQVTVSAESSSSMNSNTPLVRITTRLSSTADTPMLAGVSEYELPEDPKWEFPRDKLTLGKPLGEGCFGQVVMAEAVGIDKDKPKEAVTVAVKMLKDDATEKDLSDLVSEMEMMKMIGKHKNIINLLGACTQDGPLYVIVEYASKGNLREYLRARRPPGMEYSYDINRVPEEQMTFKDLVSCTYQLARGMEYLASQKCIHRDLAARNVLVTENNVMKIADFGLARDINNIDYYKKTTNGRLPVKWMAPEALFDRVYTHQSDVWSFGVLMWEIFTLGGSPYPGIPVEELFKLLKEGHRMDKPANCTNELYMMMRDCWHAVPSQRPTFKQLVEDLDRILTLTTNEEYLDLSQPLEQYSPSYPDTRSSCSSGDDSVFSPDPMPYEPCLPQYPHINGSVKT
Description: as §1

[11] = kinase MAP2K4 (Part I, plate E6, Domain 1), inhibitor 100 uM
[12] = kinase FYN (Part I, plate A4, Domain 0), inhibitor 100 uM
[13] = kinase LYN (Part I, plate A5, Domain 0), inhibitor 100 uM
[14] = kinase FGFR2 (Part I, plate G8, Domain 1), inhibitor 100 uM
[15] = kinase FGFR2 (Part II, plate B4, Domain 1), inhibitor 100 uM

Row | Inhibition Results (Level) (kinases of Table 5 [1]) | Inhibition Results (Level) (kinases of Table 5 [2]; [11]) | Inhibition Results (Level) (kinases of Table 5 [3]; [12]) | Inhibition level (kinases of Table 5 [4]; inhibitor 100 uM) | Inhibition level (kinases of Table 5 [5]; inhibitor 100 uM) | Inhibition Results (Level) (kinases of Table 5 [6]) | Inhibition Results (Level) (kinases of Table 5 [7]; inhibitor 100 uM) | Inhibition Results (Level) (kinases of Table 5 [8]; inhibitor 100 uM) | Inhibition Results (Level) (kinases of Table 5 [9]; [13]) | Inhibition Results (Level) (kinases of Table 5 [10]; [14]) | Inhibition level (kinases of Table 5 [10]; inhibitor 100 uM) | Inhibition level (kinases of Table 5 [4]; concentration not given) | SMILES | General Specificity (39 kinases (Table 4)) | Inhibition Results (Level) (kinases of Table 5 [4]; inhibitor 100 uM) | Inhibition Results (Level) (kinases of Table 5 [5]; inhibitor 100 uM) | Inhibition Results (Level) (kinases of Table 5 [10]; [15]) | also measured
1 | 0 | 0 | 2 | 2 | 2 | 1 | 0 | 0 | 2 | 2 | 2 |  | COc1cc2ncnc(Nc3cccc(Cl)c3)c2cc1OC [AG 1478] |  |  |  |  | 
2 | 1 | 2 | 2 | 2 | 2 | 2 | 2 | 2 | 2 | 2 | 2 | 2 | O=c1c(-c2ccc(O)cc2)coc2cc(O)cc(O)c12 [Genistein] | Tyrosine |  |  |  | Inhibition Results (Level) (kinases of Table 5 [2]; kinase MAP2K4 (Part I, plate E6, Domain 1), inhibitor <3.7 mM): 0; Inhibition Results (Level) (kinases of Table 5 [3]; kinase FYN (Part I, plate A4, Domain 0), inhibitor <3.7 mM): 1; Inhibition level (kinases of Table 5 [5]; concentration not given): 0; Inhibition Results (Level) (kinases of Table 5 [7]; inhibitor <3.7 mM): 0; Inhibition Results (Level) (kinases of Table 5 [8]; inhibitor <3.7 mM): 0; Inhibition Results (Level) (kinases of Table 5 [9]; kinase LYN (Part I, plate A5, Domain 0), inhibitor <3.7 mM): 2; Inhibition Results (Level) (kinases of Table 5 [10]; kinase FGFR2 (Part I, plate G8, Domain 1), inhibitor <3.7 mM): 0; Inhibition level (kinases of Table 5 [10]; concentration not given): 1
3 | 2 | 1 | 2 |  |  | 1 | 0 | 2 | 2 | 2 |  |  | O=S(=O)(NCCNC/C=C/c1ccc(Br)cc1)c1cccc2cnccc12 [H-89] | Serine/threonine | 2 | 2 | 2 | 
4 | 1 | 2 |  | 2 | 2 | 2 | 2 | 0 | 2 | 2 | 2 |  | CC(C)(C)n1nc(-c2ccc(Cl)cc2)c2c(N)ncnc21 [PP2] | Tyrosine |  |  |  | 
5 | 0 | 1 | 2 | 2 | 2 | 2 | 2 | 2 | 2 | 2 | 2 | 2 | Cn1cc(C2=C(c3cn(CCCSC(=N)N)c4ccccc34)C(=O)NC2=O)c2ccccc21 [Ro-31-8220] | Serine/threonine |  |  |  | Inhibition Results (Level) (kinases of Table 5 [2]; kinase MAP2K4 (Part I, plate E6, Domain 1), inhibitor 90 uM): 0; Inhibition Results (Level) (kinases of Table 5 [3]; kinase FYN (Part I, plate A4, Domain 0), inhibitor 90 uM): 0; Inhibition level (kinases of Table 5 [5]; concentration not given): 2; Inhibition Results (Level) (kinases of Table 5 [7]; inhibitor 90 uM): 0; Inhibition Results (Level) (kinases of Table 5 [8]; inhibitor 90 uM): 0; Inhibition Results (Level) (kinases of Table 5 [9]; kinase LYN (Part I, plate A5, Domain 0), inhibitor 90 uM): 0; Inhibition Results (Level) (kinases of Table 5 [10]; kinase FGFR2 (Part I, plate G8, Domain 1), inhibitor 90 uM): 2; Inhibition level (kinases of Table 5 [10]; concentration not given): 0

Row | SMILES | Inhibition Results (Level) (kinases of Table 5 [1]) | Inhibition Results (Level) (kinases of Table 5 [2]; [11]) | Inhibition Results (Level) (kinases of Table 5 [3]; [12]) | Inhibition level (kinases of Table 5 [4]; inhibitor 100 uM) | Inhibition level (kinases of Table 5 [5]; inhibitor 100 uM) | Inhibition Results (Level) (kinases of Table 5 [6]) | Inhibition Results (Level) (kinases of Table 5 [7]; inhibitor 100 uM) | Inhibition Results (Level) (kinases of Table 5 [8]; inhibitor 100 uM) | Inhibition Results (Level) (kinases of Table 5 [9]; [13]) | Inhibition Results (Level) (kinases of Table 5 [10]; [14]) | Inhibition level (kinases of Table 5 [10]; inhibitor 100 uM) | Inhibition level (kinases of Table 5 [4]; concentration not given) | General Specificity (39 kinases (Table 4)) | Inhibition Results (Level) (kinases of Table 5 [4]; inhibitor 100 uM) | Inhibition Results (Level) (kinases of Table 5 [5]; inhibitor 100 uM) | Inhibition Results (Level) (kinases of Table 5 [10]; [15]) | also measured
6 | N#C/C(=C/c1ccc(O)c(O)c1)C(=O)NCc1ccccc1 [AG 490] | 0 | 0 | 2 | 2 | 1 | 1 | 2 | 0 | 2 | 2 | 2 |  | Tyrosine |  |  |  | 
7 | O=c1c(O)c(-c2ccc(O)c(O)c2)oc2cc(O)cc(O)c12 [Quercetin] | 0 | 0 |  |  |  | 0 |  | 0 | 2 | 0 |  |  |  | 2 | 2 | 0 | 
8 | CC(=O)c1c(O)c(C)c(O)c(Cc2c(O)c3c(c(C(=O)/C=C/c4ccccc4)c2O)OC(C)(C)C=C3)c1O [Rottlerin (Mallotoxin)] | 0 | 1 | 2 |  |  | 1 | 2 | 0 | 2 | 2 |  |  |  | 2 | 0 | 0 | 
9 | CN[C@@H]1C[C@H]2O[C@@](C)([C@@H]1OC)n1c3ccccc3c3c4c(c5c6ccccc6n2c5c31)C(=O)NC4 [Staurosporine] |  |  |  |  |  |  |  |  |  |  |  | 2 | Broad |  |  |  | Inhibition Results (Level) (kinases of Table 5 [2]): 0; Inhibition Results (Level) (kinases of Table 5 [3]): 2; Inhibition Results (Level) (kinases of Table 5 [7]; inhibitor 21.5 uM): 0; Inhibition Results (Level) (kinases of Table 5 [8]; inhibitor 21.5 uM): 0; Inhibition Results (Level) (kinases of Table 5 [9]): 0
